Measurements published in US20110092589A1, “Treatment of Inflammatory Conditions and Diseases with Metal-Thiols” (THE CHARLOTTE-MECKLENBURG HOSPOTAL AUTHORITY, priority 2008, published 2011).

Key:
Male swiss white mice = experiment: Survival in inflammation model of mice (cecum ligated and perforated); format: in vivo; settings: for % Survival 1 dose: tail vein once daily for three days; for % Survival 1 dose / % Survival 2 doses: monitored 8 days; for % Survival 2 doses: tail vein twice daily for three days; for % Survived / Survived/Total: Table 2, treatment i.v. five hours after initiation of inflammation, BisEDT 20 ug/kg
Procedure: (§1) In the following examples, the protective effects of BisEDT was studied in an inflammation model of mice. Male swiss white mice weighing between 30-35 grams were used. The cecum of the mice were ligated and perforated to cause inflammation. BisEDT was prepared in a molar concentration of 1:2 by adding 4.9 pi 10.19 M EDT to 1 ml of 50 mM Bi(NO3)3 in propylene glycol.
A total of sixty mice, 10 in each group, were used in the survival phase of experimentation. Five hours after CLP, BisEDT was administered intravenously in five groups via the tail vein, once a day for three days, at doses of 0.2, 2, 20, 200 and 2000 ug Bi^3+/kg, while the last group received vehicle only. The survival time for each group of mice was recorded to determine an optimal dosage of BisEDT. The study was repeated using limited doses to confirm the results, and to determine if more frequent dosing would increase or prolong survival. This group was injected twice daily with the same doses of BisEDT, with one control group.
(§2) A total of eight groups each containing 10-20 mice in each group were used for the next phase of the study. Five hours after initiation of inflammation, 20 ug/kg BisEDT was administered intravenously with the combination of different biologics indicated in Table 2 with one group that received vehicle only (control). The survival time for each group was recorded. In another eight groups of mice 10 in each group was injected similarly with the same combination of treatment and control and several measures of immune response were assessed such as measurement of pro- and anti-inflammatory cytokines during BisEDT treatment of these mice. […] From 60-70% of mice survived when treated with one or two doses of 20 μg/kg BisEDT (p<0.05), whereas doses 10-fold higher or lower protected only 30-40% of mice (Table 1). […] However, only free TNFα, not total TNFα or free IL-10, correlated strongly with survival (r=−0.92). IL-10 is an anti-inflammatory cytokine and under certain circumstances it can cause immunosuppression. In order to test whether IL-10 plays a role in the model, monoclonal antibodies to IL-10 (that neutralizes IL-10) were used. […] Additionally, IL10 or IL-10+BisEDT provided no protection for the mice. A general damping down of cytokine production was observed, yet it was the reduction in free TNFα that correlated most closely with prevention. BisEDT appears to preserve the normal cellular response to activating stimuli and to protect mice from immune suppression or overwhelming immune reaction.
After inflammation, BisEDT was introduced into the tail vein once or twice daily for three days. Mice were monitored for 8 days to determine survival. *p<0.05, compared to control.

TNFα = experiment: Serum TNFα (total and free) in mouse inflammation model; format: in vivo, mice
Procedure: as §1, §2

IL-10 = experiment: Serum free IL-10 in mouse inflammation model; format: in vivo, mice; settings: Table 2; treatment i.v. five hours after initiation of inflammation; BisEDT 20 ug/kg
Procedure: as §1
A total of eight groups each containing 10-20 mice in each group were used for the next phase of the study. Five hours after initiation of inflammation, 20 ug/kg BisEDT was administered intravenously with the combination of different biologics indicated in Table 2 with one group that received vehicle only (control). The survival time for each group was recorded. In another eight groups of mice 10 in each group was injected similarly with the same combination of treatment and control and several measures of immune response were assessed such as measurement of pro- and anti-inflammatory cytokines during BisEDT treatment of these mice. […] From 60-70% of mice survived when treated with one or two doses of 20 μg/kg BisEDT (p<0.05), whereas doses 10-fold higher or lower protected only 30-40% of mice (Table 1). […] However, only free TNFα, not total TNFα or free IL-10, correlated strongly with survival (r=−0.92). IL-10 is an anti-inflammatory cytokine and under certain circumstances it can cause immunosuppression. […]

[1] = 20 μg Bi3+/kg BW, *p<0.05 vs control
[2] = Table 2, treatment i.v. five hours after initiation of inflammation, BisEDT 20 ug/kg

| Substance | % Survival 1 dose (Male swiss white mice; 2 μg Bi3+/kg BW) [%] | % Survival 2 doses (Male swiss white mice; 2 μg Bi3+/kg BW) [%] | % Survival 1 dose (Male swiss white mice; [1]) | % Survival 2 doses (Male swiss white mice; [1]) | % Survival 1 dose (Male swiss white mice; 200 μg Bi3+/kg BW) [%] | % Survival 2 doses (Male swiss white mice; 200 μg Bi3+/kg BW) [%] | % Survived (Male swiss white mice) [%] | Survived/Total (Male swiss white mice) | % of mice protected (Male swiss white mice; doses 10-fold higher or lower than 20 μg/kg) | % of mice survived (Male swiss white mice; one or two doses of 20 μg/kg BisEDT (p<0.05)) | changes in cytokine levels (IL1β, TNFα, IL-10, TGFβ), in words (TNFα; BisEDT-treated mice, not nearly to the same extent as in the untreated group) | sTNFα (free fraction), serum (TNFα; [2]) [pg/mL] | tTNFα (total fraction), serum (TNFα; [2]) [ng/mL] | sIL-10 (free fraction), serum (IL-10) [pg/mL] | protection of mice (in words) (Male swiss white mice; mouse inflammation model) |
| --- | --- | --- | --- | --- | --- | --- | --- | --- | --- | --- | --- | --- | --- | --- | --- |
| Bismuth-ethanedithiol [BisEDT] | 40 | 40 | 60* % | 70* % | 40 | 30 | 60 | 6/10 | 30-40% | 60-70% | significant changes in TNFα only | 100 | 330 | 595 | – |
| IL-10: IL-10 is an anti-inflammatory cytokine | – | – | – | – | – | – | 0 | 0/10 | – | – | – | – | – | – | no protection |
